Read-outs that look alike come from different tables or passages of the source.
How the values were obtained:
[1] = tested on: patients with locally advanced or metastatic solid tumors
Excerpt: This was a Phase Ib, multicenter, open-label, dose-finding clinical trial (NCT02610075). […] Three types of treatment schedules were investigated: cohorts bid 1, bid 2, qd 1.1, qd 2.1 and qd 3.1 received bid or qd treatment on a 5/9 schedule (5 days on treatment, followed by 9 days off) on a 14-day cycle. Cohorts qd 1.2, qd 2.2, and qd 3.2 received treatment on a 5/2 schedule (5 days on followed by 2 days off for 2 of 3 weeks) in a 21-day cycle. Cohorts qd 2.3 and qd 3.3 received treatment on a weekly 5/2 schedule in a 21-day cycle (Table 1). The highest dose level(s) at which less than one-third of evaluable patients (none of 3 patients or 1 of 6 patients) experienced a dose-limiting toxicity (DLT) was declared the MTD.
DLTs were evaluated during the first 28 days (5/9 schedule) or the first 21 days (5/2 schedule) of treatment.

[2] = tested on: platinum-resistant ovarian cancer; conditions: adavosertib with carboplatin; cited from earlier work
[3] = tested on: recurrent ovarian cancer with progressive disease while receiving PARPi; conditions: cited from earlier work
[4] = tested on: locally advanced or metastatic solid tumors; test: Preliminary antitumor activity (ORR, DCR, SD, PFS; RECIST v1.1); format: in vivo, human; conditions: for Duration of response: confirmed partial response
Method: Preliminary efficacy was assessed using objective response rate (ORR) in patients with measurable disease, disease control rate (DCR) and progression-free survival (PFS), all in accordance with RECIST v1.1 [17]. Responses for ORR required confirmation after at least 4 weeks.
After initiation of treatment, tumor burden was assessed at baseline and every 8 weeks (± 1 week) for the qd 5/9 dosing, and every 9 weeks (± 1 week) for the qd 5/2 treatment schedule, respectively, using computed tomography or magnetic resonance imaging of the chest and abdomen or pelvis.
The per protocol analysis set was defined as a subset of the full analysis set, excluding subjects having an important protocol deviation, to be used for analyses of efficacy endpoints if appropriate.

[5] = clinical; conditions: human, in vivo
Method: (§1) Analyses were performed for the bid dosing schedules and RP2D only.
(§2) Water was restricted from 1 h pre-dose until 1 h post-dose, except for the 240 mL of water administered with treatment.
(§3) Natural log-transformed AUC and Cmax were compared between fed/fasted conditions using a mixed effects analysis of variance model, which was fitted separately for each assessed dose. Estimates of the mean difference between treatments and corresponding 90% CI were calculated using a linear mixed effects model with a fixed effect for treatment (fed versus fasted) and a random effect for patients. Back transformed geometric means and 95% CIs were estimated for each condition.

[6] = clinical; conditions: in vivo
Method: Pre-dose samples were also collected on day 5 of treatment cycle 5.
The slope estimate (β) and corresponding 90% confidence interval (CI) were calculated, where a β estimate of 1 with 90% CI entirely within the bounds of 0.8–1.25 indicated perfect dose proportionality.

[7] = tested on: recurrent uterine serous carcinoma; conditions: 300 mg qd days 1–5 and 8–12 of a 21-day cycle, monotherapy, cited from earlier work
[8] = human, in vivo
Method: as §1, §2, §3

[9] = tested on: platinum-resistant or platinum-refractory recurrent ovarian cancer; conditions: adavosertib 175 mg qd days 1, 2, 8, 9, 15, 16 of a 28-day cycle with gemcitabine; 95% CI 3.6–6.4; cited from earlier work
[10] = qd 2.3: 250 mg qd 5/2 weekly (n=10)
[11] = qd 3.3: 300 mg 5/2 weekly (n=2)

## C=CCn1c(=O)c2cnc(Nc3ccc(N4CCN(C)CC4)cc3)nc2n1-c1cccc(C(C)(C)O)n1 [adavosertib, Adavosertib]
[1]; bid 5/9 schedule (cohort bid 1)
  Maximum tolerated dose (MTD): 125 mg
[1]; human, in vivo
  DLT nausea, occurrences: 3 n
  DLT thrombocytopenia, occurrences: 3 n
  Number of DLTs reported: 12
[1]; human, in vivo, 21 days
  Recommended Phase II dose (RP2D): 300 mg
[1]; in vivo
  All other DLTs (dehydration, neutropenia, weight decrease, pneumonia, diarrhea, vomiting), occurrences each: once
[1]; qd 5/2 for 2 of 3 weeks (cohort qd 3.2)
  Maximum tolerated dose (MTD): 300 mg
[1]; qd 5/9 schedule (cohort qd 3.1)
  Maximum tolerated dose (MTD): 300 mg
[2]
  Response rate: 66.7%
[3]; adavosertib alone, 90% CI 12–38
  ORR: 23%
[3]; combination therapy with PARP inhibitor, 90% CI 16–44
  ORR: 29%
[4]; 1 patient with anal carcinoma, qd 1.2 cohort
  Duration of response: 6.9 months
[4]; 1 patient with thymoma, bid 2 cohort
  Duration of response: 3.7 months
[4]; Total (N=62)
  DCR, CP + PR + SD/n (%): 48.4 CP + PR + SD/n (%)
  Median PFS, months (95% CI): 2.7 (2.0–3.8) months
[4]; Total, 58 patients with measurable disease at baseline
  ORR, CP + PR/n (%): 3.4 CP + PR/n (%)
[4]; all cohorts
  Patients with confirmed (or unconfirmed) complete responses: None
[4]; all cohorts (N=62)
  Patients alive and progression-free at data cutoff: 14 (22.6%) n (%)
  Patients who had experienced a PFS event at data cutoff: 47 (75.8%) n (%)
[4]; bid 2: 150 mg bid 5/9 (n=6)
  DCR, CP + PR + SD/n (%): 2 (33.3) CP + PR + SD/n (%)
  Median PFS, months (95% CI): 1.9 (1.0–NC) months
[4]; of 62 patients, 95% CI 10.0–32.2
  Patients progression-free at 6 months after first dose: 19.8%
[4]; qd 1.1: 200 mg qd 5/9 (n=5)
  DCR, CP + PR + SD/n (%): 2 (40.0) CP + PR + SD/n (%)
  Median PFS, months (95% CI): 2.0 (0.6–NC) months
  ORR, CP + PR/n (%): 0 CP + PR/n (%)
[4]; qd 1.2: 200 mg qd 5/2 (n=6)
  DCR, CP + PR + SD/n (%): 2 (33.3) CP + PR + SD/n (%)
  Median PFS, months (95% CI): 2.7 (1.2–9.0) months
[4]; qd 2.1: 250 mg qd 5/9 (n=4)
  DCR, CP + PR + SD/n (%): 1 (25.0) CP + PR + SD/n (%)
  Median PFS, months (95% CI): 1.9 (1.8–4.1) months
  ORR, CP + PR/n (%): 0 CP + PR/n (%)
[4]; qd 2.2: 250 mg qd 5/2 (n=3)
  DCR, CP + PR + SD/n (%): 2 (66.7) CP + PR + SD/n (%)
  Median PFS, months (95% CI): 3.7 (1.2–11.0) months
  ORR, CP + PR/n (%): 0 CP + PR/n (%)
[4]; [10]
  DCR, CP + PR + SD/n (%): 3 (30.0) CP + PR + SD/n (%)
  Median PFS, months (95% CI): 2.1 (0.6–4.1) months
  ORR, CP + PR/n (%): 0 CP + PR/n (%)
[4]; qd 3.1: 300 mg qd 5/9 (n=4)
  DCR, CP + PR + SD/n (%): 3 (75.0) CP + PR + SD/n (%)
  Median PFS, months (95% CI): 7.6 (2.7–9.3) months
  ORR, CP + PR/n (%): 0 CP + PR/n (%)
[4]; qd 3.2: 300 mg qd 5/2 (n=16)
  DCR, CP + PR + SD/n (%): 11 (68.8) CP + PR + SD/n (%)
  Median PFS, months (95% CI): 3.2 (2.1–5.0) months
  ORR, CP + PR/n (%): 0 CP + PR/n (%)
[4]; [11]
  DCR, CP + PR + SD/n (%): 0 CP + PR + SD/n (%)
  Median PFS, months (95% CI): 2.6 (NC–NC) months
  ORR, CP + PR/n (%): 0 CP + PR/n (%)
[5]; 125 mg
  Cmax: 276 nM
[5]; 150 mg, Cmax, geometric LS mean (95% CI)
  Cmax: 464 nM
[6]; human
  Dose proportionality power model slope β, AUC0–10: 1.31
  Dose proportionality power model slope β, Cmax: 1.31
[6]; human, po
  half-life: 5 to 12 h
[6]
  Dose proportionality of systemic exposure: more than dose proportional
[7]; 95% CI 15.1–47.5
  ORR: 29.4%
[7]
  Median PFS: 6.1 months
[8]; 125 mg
  AUC0–10, geometric LS mean (95% CI): 1658.8 (1017.1, 2705.3) h*nmol/L
[8]; 150 mg
  AUC0–10, geometric LS mean (95% CI): 3228.0 (1698.9, 6133.3) h*nmol/L
[8]; 300 mg
  AUC0–10, geometric LS mean (95% CI): 5340.4 (65.0, 439027.6) h*nmol/L
  Cmax: 819 nM
[9]
  PFS: 4.6 months

— publication PMC10289903 (Investigational New Drugs, 2023)
